Key:
bone marrow cells [1] = assay: Proliferation of bone marrow cells in serum-free basal medium; type: cell-based, human; conditions: for proliferation of bone marrow cells, times more than the control medium: 100 μg/ml BAPN, two week culture
Excerpt: Effects of β-aminopropionitrile (hereinafter referred to as BAPN) on proliferation of bone marrow cells in serum-free medium were inspected. The bone marrow cells used in Example 1 mostly consists of hematopoietic cells and is a population of cells including hematopoietic cells.
First, proliferations of bone marrow cells were inspected in a serum-free medium in the presence and absence of fibronectin and collagen IV which are extracellular matrix that is known to influence proliferation of bone marrow cells.
(§1) A bone marrow monocyte (Catalog number ARM07F) was purchased from Stem Cell Technology Co., Ltd. The bone marrow mononuclear cells was obtained from a normal person, and CD34+ cells accounted for 1.6% of the cells. The bone marrow cells were maintained in a maintenance medium. The maintenance medium was a IMDM including 50 ng/ml of SCF, 50 ng/ml of IL-6, 50 ng/ml of TPO, 50 ng/ml of FL, 10 μg/ml of recombinant human insulin, 100 μg/ml of bovine serum albumin (BSA), 200 μg/ml of human transferrin, 0.1 mM of 2-mercaptoethanol, and 2 mM of L-glutamine.
(§2) 100 μl of the basal medium, and 100 μl of the basal medium with 100 μg/ml of BAPN were placed in each well of a 24 well plate, bone marrow cells were inoculated onto the media in the concentration of 1×10^5 cell/ml, and cultured for two weeks. The medium was exchanged every week. After the two week culture, adhesive cells were detached from the surface through trypsin treatment and the final cell concentration including floating cells was measured using a hemacytometer. In addition, the bottom of the 24 well plate was coated with collagen IV or fibronectin, and the effects of collagen IV or fibronectin were measured at the same time. The coating materials were dissolved to the concentration of from 5 to 50 μg/ml, the mixture was poured into the 24 wells to the amount of from 1 to 10 μg/cm^2 and reacted for one hour at room temperature.

bone marrow cells [2] = assay: Proliferation of bone marrow cells in serum-free basal medium including IL-3; type: cell-based, human; conditions: for proliferation of bone marrow cells, times more than the control medium including IL-3: 2 week culture
Procedure: Effects of BAPN on proliferation of bone marrow cells in serum-free basal medium including IL-3 which induces divisions of hematopoietic stem cells were inspected.
as §1, with “monocyte” for “mononuclear cells”, “total monocytes.” for “cells.”, “maintaining” for “maintenance”
as §2, with “the basal medium with 20 μg/ml of IL-3, and 100” for “the basal medium, and 100”, “medium with 20 μg/ml of IL-3 and 100 μg/ml” for “medium with 100 μg/ml”, “After the 2 week culture,” for “After the two week culture,”, “same time. In the coating, coating materials” for “same time. The coating materials”

N#CCCN [BAPN, β-aminopropionitrile]
proliferation of bone marrow cells, times more than the control medium (bone marrow cells [1]; collagen-coated 24 well plate): 5.1 times | proliferation of bone marrow cells, times more than the control medium (bone marrow cells [1]; fibronectin-coated 24 well plate): 12.1 times | proliferation of bone marrow cells, times more than the control medium (bone marrow cells [1]; uncoated 24 well plate): 5.4 times | effect on proliferation of bone marrow cells (bone marrow cells [1]; whether or not the culture vessel was coated with extracellular matrix): promoted the proliferation of bone marrow cells | proliferation of bone marrow cells, times more than the control medium including IL-3 (bone marrow cells [2]; 100 μg/ml BAPN with IL-3, collagen-coated 24 well plate): 2.6 times | proliferation of bone marrow cells, times more than the control medium including IL-3 (bone marrow cells [2]; 100 μg/ml BAPN with IL-3, fibronectin-coated 24 well plate): 2.0 times | proliferation of bone marrow cells, times more than the control medium including IL-3 (bone marrow cells [2]; 100 μg/ml BAPN with IL-3, uncoated 24 well plate): 3.1 times | effect on proliferation of bone marrow cells (bone marrow cells [2]; with or without extracellular matrix coating, with or without cytokine (IL-3)): promoted the proliferation of bone marrow cells
